Assay results from US8088932B2, “Pentaaryldiamine-containing bismaleimide compound and method of producing the compound” (Industrial Technology Research Institute, priority 2008, dated 2012).

Experiment: physchem
Details: organic solvent or mixture, thermodynamic from solid

`N#Cc1ccc(N(c2ccc(C#N)cc2)c2ccc(N(c3ccc(N4C(=O)C=CC4=O)cc3)c3ccc(N4C(=O)C=CC4=O)cc3)cc2)cc1` [Compound 6, N,N-bis(4-maleimidophenyl)-N′,N′-bis(4-cyanophenyl)-1,4-phenylenediamine] gave a solubility (Solubility in CHCl3) of over 1000 µg/mL, a solubility (Solubility in DMAc) of over 1000 µg/mL and a solubility (Solubility in DMF) of over 1000 µg/mL. The solubility (Solubility in DMSO) was over 1000 µg/mL, the solubility (Solubility in MeOH) was under 1000 µg/mL and the solubility (Solubility in NMP) was over 1000 µg/mL. For the same compound, the solubility (Solubility in THF) was over 1000 µg/mL and the solubility (Solubility in m-Cresol) was over 1000 µg/mL.
